Values joined by “and” are separate entries in the source; they are usually repeats but may differ in a detail not shown here. Identical values can stand only once. Starred links: 1 amine or outer side, 2 acyl side, 3 side chain; linkers in the order of their positions; H or OH if unused. Non-standard residues stand in square brackets, D forms with d. Residues, ends and D or L forms follow the SMILES beside them. *: point of attachment. DOTA = O=C(O)CN1CCN(CC(=O)O)CCN(CC(=O)*)CCN(CC(=O)O)CC1; NMeH = CN[C@@H](Cc1c[nH]cn1)C(=O)O; X1 = O=C(CN1CCC(N[*:1])CC1)[*:2]; Tle = CC(C)(C)[C@H](N)C(=O)O; hSer = N[C@@H](CCO)C(=O)O; Thz = O=C(O)[C@@H]1CSCN1; Abu = CC[C@H](N)C(=O)O; Aib = CC(C)(N)C(=O)O
Experiments:
[1] = target: T1, GRPR (Homo sapiens, UniProt P30550); assay: Fluorometric calcium release assay in PC-3 cells; format: cell-based; conditions: 50 nM ligand
T1 construct: generated using GRPR-expressing PC-3 cells; endogenous in cells; host or cells: PC-3 cells
T1 sequence (P30550 whole entry): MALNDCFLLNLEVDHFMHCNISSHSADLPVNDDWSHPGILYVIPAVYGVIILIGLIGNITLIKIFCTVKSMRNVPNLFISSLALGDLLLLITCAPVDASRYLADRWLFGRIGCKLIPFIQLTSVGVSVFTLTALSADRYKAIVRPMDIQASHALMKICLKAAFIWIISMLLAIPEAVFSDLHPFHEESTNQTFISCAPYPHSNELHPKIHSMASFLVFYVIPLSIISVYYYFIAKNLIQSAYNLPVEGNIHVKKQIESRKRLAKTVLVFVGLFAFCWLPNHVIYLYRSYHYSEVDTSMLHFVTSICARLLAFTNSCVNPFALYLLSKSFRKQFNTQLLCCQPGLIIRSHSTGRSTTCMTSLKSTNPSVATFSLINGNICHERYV
Protocol: The growth medium was removed and replaced with a loading buffer containing a calcium-sensitive dye (FLIPR Calcium 6 assay kit from Molecular Devices, San Jose, CA, USA). After incubated at 37 °C for 30 min, the plates were placed in a FlexStation 3 microplate reader (Molecular Devices). Tested ligands (50 nM) or DPBS (negative control) were added to the cells and the fluorescent signals were acquired for 2 min. Agonistic/antagonistic properties of the tested ligands were determined based on the relative fluorescent unit (RFU = max – min) of their generated fluorescent signals.

[2] = target: T1, GRPR; assay: In vitro competition binding assay using PC-3 cells and [^125I-Tyr^4]Bombesin as the radioligand; conditions: PC-3 cells, mean ± SD, n = 3, read-out: GRPR binding affinity (Ki)
Protocol: [2022], [2023]; Bratanovic et al. [2022]). The assays were conducted in triplicate with varied concentrations (10 μM to 1 pM) of tested ligands. […] The growth medium was replaced with 400 μL of reaction medium (RPMI 1640 containing 2 mg/mL BSA, and 20 mM HEPES), then the plates were incubated at 37 °C for 60 min. […] Data were analyzed using nonlinear regression with GraphPad (San Diego, CA, USA) Prism 8 software.

CC(C)C[C@H](NC(=O)[C@H](Cc1c[nH]cn1)N(C)C(=O)CNC(=O)[C@@H](NC(=O)[C@H](C)NC(=O)[C@H](Cc1c[nH]c2ccccc12)NC(=O)[C@H](CCC(N)=O)NC(=O)[C@@H](Cc1ccccc1)NC(=O)CN1CCC(NC(=O)CN2CCN(CC(=O)O)CCN(CC(=O)O)CCN(CC(=O)O)CC2)CC1)C(C)(C)C)C(=O)N1CSC[C@H]1C(N)=O [Ga-LW01110, Ga-DOTA-Pip-D-Phe-Gln-Trp-Ala-Tle-Gly-NMe-His-Leu-Thz-NH2]
Ca^2+ efflux (relative fluorescence units, RFU = max – min) [1]: 521 ± 43.7 RFUs

CC(C)C[C@H](NC(=O)[C@H](Cc1c[nH]cn1)N(C)C(=O)CNC(=O)[C@@H](NC(=O)[C@H](C)NC(=O)[C@H](Cc1c[nH]c2ccccc12)NC(=O)[C@H](Cc1c[nH]cn1)NC(=O)[C@@H](Cc1ccccc1)NC(=O)CN1CCC(NC(=O)CN2CCN(CC(=O)O)CCN(CC(=O)O)CCN(CC(=O)O)CC2)CC1)C(C)(C)C)C(=O)N1CSC[C@H]1C(N)=O [Ga-LW01142, Ga-DOTA-Pip-D-Phe-His-Trp-Ala-Tle-Gly-NMe-His-Leu-Thz-NH2] ({DOTA}-[X1][dF]HWA[Tle]G[NMeH]L[Thz]-NH2)
Ca^2+ efflux (relative fluorescence units, RFU = max – min) [1]: 559 ± 96.2 RFUs

CC(C)C[C@H](NC(=O)[C@H](Cc1c[nH]cn1)NC(=O)CNC(=O)[C@@H](NC(=O)[C@H](C)NC(=O)[C@H]1Cc2c([nH]c3ccccc23)CN1C(=O)[C@H](CCC(N)=O)NC(=O)[C@H](N)Cc1ccccc1)C(C)C)C(=O)N1CSC[C@H]1C(N)=O [LW01191, D-Phe-Gln-D-Tpi-Ala-Val-Gly-His-Leu-Thz-NH2]
Ki [2]: > 10000 nM

CC[C@H](NC(=O)[C@H](C)NC(=O)[C@H](Cc1c[nH]c2ccccc12)NC(=O)[C@H](CCC(N)=O)NC(=O)[C@H](N)Cc1ccccc1)C(=O)NCC(=O)N[C@@H](Cc1c[nH]cn1)C(=O)N[C@@H](CC(C)C)C(=O)N1CSC[C@H]1C(N)=O [LW01083, D-Phe-Gln-Trp-Ala-2-Abu-Gly-His-Leu-Thz-NH2]
Ki [2]: > 150 nM and 406 nM

Cc1ccc2c(C[C@H](NC(=O)[C@H](CCC(N)=O)NC(=O)[C@H](N)Cc3ccccc3)C(=O)N[C@@H](C)C(=O)N[C@H](C(=O)NCC(=O)N[C@@H](Cc3c[nH]cn3)C(=O)N[C@@H](CC(C)C)C(=O)N3CSC[C@H]3C(N)=O)C(C)C)c[nH]c2c1 [LW01171, D-Phe-Gln-6-Me-Trp-Ala-Val-Gly-His-Leu-Thz-NH2]
Ki [2]: > 150 nM and 1450 nM

CC(C)C[C@H](NC(=O)[C@H](Cc1c[nH]cn1)NC(=O)CNC(=O)[C@@H](NC(=O)C(C)(C)NC(=O)[C@H](Cc1c[nH]c2ccccc12)NC(=O)[C@H](CCC(N)=O)NC(=O)[C@H](N)Cc1ccccc1)C(C)C)C(=O)N1CSC[C@H]1C(N)=O [LW01075, D-Phe-Gln-Trp-Aib-Val-Gly-His-Leu-Thz-NH2] (H-[dF]QW[Aib]VGHL[Thz]-NH2)
Ki [2]: > 150 nM and 2410 nM

Cc1[nH]c2ccccc2c1C[C@H](NC(=O)[C@H](CCC(N)=O)NC(=O)[C@@H](Cc1ccccc1)NC(=O)CN1CCC(NC(=O)CN2CCN(CC(=O)O)CCN(CC(=O)O)CCN(CC(=O)O)CC2)CC1)C(=O)N[C@@H](C)C(=O)N[C@H](C(=O)NCC(=O)N[C@@H](Cc1c[nH]cn1)C(=O)N[C@@H](CC(C)C)C(=O)N1CSC[C@H]1C(N)=O)C(C)C [Ga-LW02025, Ga-DOTA-Pip-D-Phe-Gln-2-Me-Trp-Ala-Val-Gly-His-Leu-Thz-NH2]
Ca^2+ efflux (relative fluorescence units, RFU = max – min) [1]: 197 ± 50.3 RFUs

[D-Phe^6,Leu-NHEt^13,des-Met^14]Bombesin(6–14) [reference compound]
Ca^2+ efflux (relative fluorescence units, RFU = max – min) [1]: 38.2 ± 7.20 RFUs

CC(C)C[C@H](NC(=O)[C@H](Cc1c[nH]cn1)N(C)C(=O)CNC(=O)[C@@H](NC(=O)[C@H](C)NC(=O)[C@H](Cc1c[nH]c2c(F)cccc12)NC(=O)[C@H](CCC(N)=O)NC(=O)[C@@H](Cc1ccccc1)NC(=O)CN1CCC(NC(=O)CN2CCN(CC(=O)O)CCN(CC(=O)O)CCN(CC(=O)O)CC2)CC1)C(C)(C)C)C(=O)N1CSC[C@H]1C(N)=O [Ga-LW02040, Ga-DOTA-Pip-D-Phe-Gln-7-F-Trp-Ala-Tle-Gly-NMe-His-Leu-Thz-NH2]
Ca^2+ efflux (relative fluorescence units, RFU = max – min) [1]: 242 ± 44.1 RFUs

CC(C)=C(NC(=O)[C@H](C)NC(=O)[C@H](Cc1c[nH]c2ccccc12)NC(=O)[C@H](CCC(N)=O)NC(=O)[C@H](N)Cc1ccccc1)C(=O)NCC(=O)N[C@@H](Cc1c[nH]cn1)C(=O)N[C@@H](CC(C)C)C(=O)N1CSC[C@H]1C(N)=O [LW02011, D-Phe-Gln-Trp-Ala-2,3-dehydro-Val-Gly-His-Leu-Thz-NH2]
Ki [2]: > 10000 nM

CC[C@H](NC(=O)[C@H](Cc1c[nH]c2ccccc12)NC(=O)[C@H](CCC(N)=O)NC(=O)[C@H](N)Cc1ccccc1)C(=O)N[C@H](C(=O)NCC(=O)N[C@@H](Cc1c[nH]cn1)C(=O)N[C@@H](CC(C)C)C(=O)N1CSC[C@H]1C(N)=O)C(C)C [LW01078, D-Phe-Gln-Trp-2-Abu-Val-Gly-His-Leu-Thz-NH2] (H-[dF]QW[Abu]VGHL[Thz]-NH2)
Ki [2]: 27.2 ± 8.62 nM

CC(C)C[C@H](NC(=O)[C@H](Cc1c[nH]cn1)NC(=O)CNC(=O)[C@@H](NC(=O)[C@H](C)NC(=O)[C@H](Cc1c[nH]c2ncccc12)NC(=O)[C@H](CCC(N)=O)NC(=O)[C@H](N)Cc1ccccc1)C(C)C)C(=O)N1CSC[C@H]1C(N)=O [LW02013, D-Phe-Gln-7-Aza-Trp-Ala-Val-Gly-His-Leu-Thz-NH2]
Ki [2]: > 150 nM

CC(C)C[C@H](NC(=O)[C@H](Cc1c[nH]cn1)NC(=O)CNC(=O)[C@@H](NC(=O)[C@H](C)NC(=O)[C@H](Cc1c[nH]c2ccc(O)cc12)NC(=O)[C@H](CCC(N)=O)NC(=O)[C@H](N)Cc1ccccc1)C(C)C)C(=O)N1CSC[C@H]1C(N)=O [LW01173, D-Phe-Gln-5-OH-Trp-Ala-Val-Gly-His-Leu-Thz-NH2]
Ki [2]: > 150 nM and 2030 nM

Nc1ncnc2c1ncn2[C@@H]1O[C@H](COP(=O)(O)OP(=O)(O)OP(=O)(O)O)[C@@H](O)[C@H]1O [ATP, reference compound]
Ca^2+ efflux (relative fluorescence units, RFU = max – min) [1]: 253 ± 46.5 RFUs

CC(C)C[C@H](NC(=O)[C@H](Cc1c[nH]cn1)NC(=O)CNC(=O)[C@@H](NC(=O)[C@H](C)NC(=O)[C@H](Cc1c[nH]c2ccccc12)NC(=O)[C@H](CCC(N)=O)NC(=O)[C@H](N)Cc1ccccc1)C1CCC1)C(=O)N1CSC[C@H]1C(N)=O [LW02019, D-Phe-Gln-Trp-Ala-cyclobutaneacetic acid-Gly-His-Leu-Thz-NH2]
Ki [2]: 35.7 ± 27.4 nM

Ga-DOTA-Pip-D-Phe-Gln-7-F-Trp-Ala-Val-Gly-His-Leu-Thz-NH2 [Ga-LW02021]
Ca^2+ efflux (relative fluorescence units, RFU = max – min) [1]: 178 ± 53.7 RFUs

CC(C)C[C@H](NC(=O)[C@H](Cc1c[nH]cn1)NC(=O)CNC(=O)[C@@H](NC(=O)[C@H](C)NC(=O)[C@H](Cc1c[nH]c2ccccc12)NC(=O)[C@H](CCO)NC(=O)[C@H](N)Cc1ccccc1)C(C)C)C(=O)N1CSC[C@H]1C(N)=O [LW02030, D-Phe-Hse-Trp-Ala-Val-Gly-His-Leu-Thz-NH2] (H-[dF][hSer]WAVGHL[Thz]-NH2)
Ki [2]: > 150 nM and 196 nM

CC(C)C[C@H](NC(=O)[C@H](Cc1c[nH]cn1)NC(=O)CNC(=O)[C@@H](NC(=O)[C@H](C)NC(=O)[C@H](Cc1c[nH]c2cc(Cl)ccc12)NC(=O)[C@H](CCC(N)=O)NC(=O)[C@H](N)Cc1ccccc1)C(C)C)C(=O)N1CSC[C@H]1C(N)=O [LW01137, D-Phe-Gln-6-Cl-Trp-Ala-Val-Gly-His-Leu-Thz-NH2]
Ki [2]: > 150 nM and 829 nM

bombesin [reference compound]
Ca^2+ efflux (relative fluorescence units, RFU = max – min) [1]: 450 ± 136 RFUs

Ga-DOTA-Pip-D-Phe-Gln-Trp-Ala-Val-Gly-NMe-His-Leu-Thz-NH2 [Ga-LW01107]
Ca^2+ efflux (relative fluorescence units, RFU = max – min) [1]: 1,004 ± 32.0 RFUs

Cc1ccc2[nH]cc(C[C@H](NC(=O)[C@H](CCC(N)=O)NC(=O)[C@@H](Cc3ccccc3)NC(=O)CN3CCC(NC(=O)CN4CCN(CC(=O)O)CCN(CC(=O)O)CCN(CC(=O)O)CC4)CC3)C(=O)N[C@@H](C)C(=O)N[C@H](C(=O)NCC(=O)N[C@@H](Cc3c[nH]cn3)C(=O)N[C@@H](CC(C)C)C(=O)N3CSC[C@H]3C(N)=O)C(C)C)c2c1 [Ga-LW02023, Ga-DOTA-Pip-D-Phe-Gln-5-Me-Trp-Ala-Val-Gly-His-Leu-Thz-NH2]
Ca^2+ efflux (relative fluorescence units, RFU = max – min) [1]: 312 ± 45.9 RFUs

CC(C)C[C@H](NC(=O)[C@H](Cc1c[nH]cn1)NC(=O)CNC(=O)[C@@H](NC(=O)[C@H](C)NC(=O)[C@H](Cc1c[nH]c2ccccc12)NC(=O)[C@H](CCC(N)=O)NC(=O)[C@@H](Cc1ccccc1)NC(=O)CN1CCC(NC(=O)CN2CCN(CC(=O)O)CCN(CC(=O)O)CCN(CC(=O)O)CC2)CC1)C(C)(C)C)C(=O)N1CSC[C@H]1C(N)=O [Ga-LW01108, Ga-DOTA-Pip-D-Phe-Gln-Trp-Ala-Tle-Gly-His-Leu-Thz-NH2]
Ca^2+ efflux (relative fluorescence units, RFU = max – min) [1]: 549 ± 46.7 RFUs
